Assay results published in article PMC8954547, “Nonpeptidic Z360-Analogs Tagged with Trivalent Radiometals as Anti-CCK2R Cancer Theranostic Agents: A Preclinical Study” (Pharmaceutics, 2022).

Assays:
HEK293-CCK2i4svR cells = assay: Radioligand uptake and internalization in HEK293-CCK2i4svR cells; type: cell-based, human
Description: A day before the experiment, HEK293-CCK2i4svR cells were seeded in six-well plates. The next day, cells were rinsed with ice-cold internalization medium (IM: DMEM Glutamax-I, supplemented by 1% (v/v) FBS) and then the fresh medium was added (1.2 mL) at 37 °C. A further portion of IM (150 µL) was added in the upper well-row, and DG2 solution in IM (150 µL) was added in the lower row (to a final concentration of 1 μM; non-specific series). Each of the test radioligands, [^67Ga]Ga/[^111In]In/[^177Lu]Lu-GAS1/3 and [^67Ga]Ga/[^111In]In-GAS2, was finally added (250 fmol total conjugates in 150 μL 0.5% BSA-PBS) in all the wells and the plates were incubated at for 1 h at 37 °C in an Incubator-Orbital Shaker unit (MPM Instr. SrI, Bernareggio, MI, Italy); [^111In]In-GAS1/2/3 were incubated for 15 min, 30 min, 1 h and 2 h. At the predetermined time points, the plates were placed on ice, the medium was collected, and the plates were rinsed with 0.5% BSA-PBS (1 mL). Cells were subsequently treated with an acid-wash solution (2 × 600 µL; 50 mM glycine buffer pH 2.8, 0.1 M NaCl) and the fractions collected (membrane-bound). After briefly washing with 0.5% BSA-PBS (1 mL), the cells were lysed with 1 N NaOH (2 × 600 µL), and the fractions were collected (internalized). The radioactivity content of collected fractions was counted in the gamma counter, and the percentage of internalized and membrane-bound fractions per time point were calculated with Microsoft Excel. Specific internalized and membrane-bound counts were determined by subtracting the respective non-specific (in the presence of 1 μM DG2) from the respective total counts. Results represent specific internalized/membrane bound ± SD of total added radioactivity per well from three experiments performed in triplicate.

[1] = system: SCID mice bearing twin HEK293-CCK2i4svR and wtHEK293 tumors; assay: Biodistribution in SCID mice bearing twin HEK293-CCK2i4svR and wtHEK293 xenografts; type: in vivo
In short: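 Uptake is expressed as %IA/g (mean ± SD, n = 4) from gamma counting of blood, organs and tumours collected at set times: 1, 4 and 24 h pi for ^67Ga, 4 and 24 h for ^111In (±gelofusine), 4–96 h for ^177Lu. Radioligands were given iv at 7–40 pmol to SCID mice bearing twin CCK2i4svR-transfected and wild-type HEK293 xenografts.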

[2] = system: HEK293-CCK2i4svR and wtHEK293 xenografts; assay: SPECT/CT of HEK293-CCK2i4svR and wtHEK293 xenografts; type: in vivo, mice; settings: 4 h and 24 h pi
Description: For SPECT/CT imaging, six mice bearing twin HEK293-CCK2i4svR and wtHEK293 tumors were injected in the tail vein with a bolus containing [^111In]In-GAS1/2/3 (100 μL, 9–12 MBq associated with 3 nmol total injected analog in-vehicle: saline/EtOH 9/1 v/v). Mice were euthanized at 4 h and 24 h pi. Tomographic SPECT/CT imaging was performed with the y-CUBE/x-CUBE systems (Molecubes, Belgium). The SPECT system is based on monolithic NaI detectors attached to SiPMs, with a 0.6 mm intrinsic resolution. The CT system is based on a structured CMOS detector of CsI with pixels of 75 µm and operates between 35–80 kVp, 10–500 µA tube current, with a 33 µm fixed focal spot size. SPECT scans were acquired 4 h pi and 24 h pi, with a 40–50 min duration protocol based on the injected activity, and each SPECT scan was succeeded by a CT scan, following General-Purpose protocol under 50 kVp, for co-registration purposes. SPECT images were reconstructed using the MLEM reconstruction method with a 250 µm voxel size and 500 iterations. CT images were reconstructed using the ISRA reconstruction method with a 100 µm voxel size.
Images were exported and post-processed on VivoQuant software, version 4.0 (Invicro, Boston). A smoothing median filter (0.6 mm, spherical window) was applied to the images, and the bladder was removed for consistency purposes. Normalization of images was performed (i.e., all images having the same color scale range values) to achieve a direct visual comparison between the different groups.

## CC(C)(C)C(=O)CN1C(=O)[C@H](NC(=O)Nc2cccc(C(=O)NCCOCCOCCOCCNC(=O)[C@@H](CCC(=O)O)NC(=O)CCC(C(=O)O)N3CCN(CC(=O)[O-])CCN(CC(=O)[O-])CCN(CC(=O)[O-])CC3)c2)CN(C2CCCCC2)c2ccccc21.[111In+3] (stereo partly shown) [[^111In]In-GAS3]
HEK293-CCK2i4svR cells
  Internalized to membrane-bound ratio: 4.1
HEK293-CCK2i4svR cells; 1 h 37 °C, specific
  Internalized fraction: 11.12 ± 0.79 % of total added activity
HEK293-CCK2i4svR cells; 1 h 37 °C, specific, of total added activity
  Cell uptake (internalized + membrane-bound): 13.81 ± 0.89%
[1]; 4 h pi
  Biodistribution, Blood: 2.42 ± 0.94 %IA/g
  Biodistribution, CCK2i4svR(+) Tumor: 19.83 ± 1.35 %IA/g
  Biodistribution, CCK2i4svR(-) Tumor: 0.85 ± 0.37 %IA/g
  Biodistribution, Femur: 0.60 ± 0.14 %IA/g
  Biodistribution, Heart: 0.81 ± 0.28 %IA/g
  Biodistribution, Intestines: 1.66 ± 0.33 %IA/g
  Biodistribution, Kidneys: 9.32 ± 0.68 %IA/g
  Biodistribution, Liver: 2.78 ± 0.27 %IA/g
  Biodistribution, Lungs: 1.36 ± 0.37 %IA/g
  Biodistribution, Muscle: 0.31 ± 0.13 %IA/g
  Biodistribution, Pancreas: 0.86 ± 0.23 %IA/g
  Biodistribution, Spleen: 0.69 ± 0.12 %IA/g
  Biodistribution, Stomach: 0.91 ± 0.39 %IA/g
[1]; 24 h pi
  Biodistribution, Blood: 0.08 ± 0.01 %IA/g
  Biodistribution, CCK2i4svR(+) Tumor: 11.53 ± 1.93 %IA/g
  Biodistribution, CCK2i4svR(-) Tumor: 0.40 ± 0.21 %IA/g
  Biodistribution, Femur: 0.27 ± 0.09 %IA/g
  Biodistribution, Heart: 0.16 ± 0.02 %IA/g
  Biodistribution, Intestines: 0.48 ± 0.14 %IA/g
  Biodistribution, Kidneys: 4.15 ± 1.06 %IA/g
  Biodistribution, Liver: 1.07 ± 0.26 %IA/g
  Biodistribution, Muscle: 0.08 ± 0.01 %IA/g
  Biodistribution, Pancreas: 0.17 ± 0.04 %IA/g
  Biodistribution, Spleen: 0.43 ± 0.09 %IA/g
  Biodistribution, Stomach: 0.35 ± 0.21 %IA/g
[1]; mouse, in vivo
  Background clearance / excretion route: predominantly cleared via the kidneys
[2]
  SPECT/CT uptake in CCK2i4svR expressing tumors: Intense uptake
  SPECT/CT uptake in wtHEK293 tumors devoid of CCK2i4svR expression: no uptake is evident
